Measurements from patent EP0623675A1, “Altered affinity polypeptides of metal chelate binding antibodies” (HYBRITECH INCORPORATED, priority 1992, dated 1994).

Key:
[1] = test system: monoclonal antibody CHA255; experiment: Antibody CHA255 binding assay (Centrifree ultrafiltration of labeled chelate); parameters: species or system murine; conditions: radiolabeled chelate 5 nM, antibody 133 nM, PBS pH 7.4, 15 minutes at room temperature
Method: As indicated, the monoclonal antibody CHA255 is specific for the In(III)-benzyl EDTA complex. The affinity and characterization have been described previously by Reardon et al. in Nature 316:265 (1985). Binding assays were performed to verify the identity of the haptens designated as DB-I to DB-X and DDB-I to DDB-III. […] For the ⁹⁰Yttrium (III) hapten chelate, in particular, CHA255 binding required the presence of the Indiumbenzyl-EDTA moiety as provided in the compounds of the invention. The labeled DB and DDB hapten chelates were combined with antibody CHA255 in PBS (10 mM sodium phosphate, 150 mM sodium chloride, pH 7.4) containing 44 µg/mL of human serum albumin and 0.05% Triton-X-100 detergent. Concentrations of the radiolabeled hapten chelating agent and antibody were 5 nM and 133 nM, respectively. The mixture was vortexed and allowed to stand at room temperature for 15 minutes, after which it was transferred to an Amicon Centrifree™ device, with a NMW limit of 30,000, and centrifuged to separate antibody-bound chelate from free hapten chelate. The species bound to the antibody was retained by the membrane and the free chelate flowed through the membrane into the filtrate. The extent of antibody-hapten chelate binding was then determined.

[2] = test system: CHA255 Fab' variant clone 3.1.1 (heavy chain CDR H1/H3 mutagenesis, Fig. 3B); experiment: Scatchard analysis of phage expressed altered CHA255 Fab' with InEOTUBE; format: binding, murine; conditions: compared with native CHA255 Fab' (synthesized and phage expressed); crude periplasm Fab', about 10 nM; cold InEOTUBE 2.43 nM to 0.082 nM
Method: (§1) Free Fab' was expressed and isolated from the periplasmic space of the non-suppressor strain MK30-3 as previously described (International Patent Publication No. WO 92/06204). The concentration of antibody in periplasm preparations was estimated by comparing the ELISA signal generated by aliquots of periplasm of mutant clones to a standard curve using purified CHA255 Fab'. Data points for the Scatchard plots were prepared by incubating antibody (100 µl, approximately 10 nM) diluted in 1X PBS, 1% BSA as crude periplasm fraction with dilutions of cold InEOTUBE (2.43 nM to 0.082 nM) in 1X PBS, 1% BSA hapten spiked with ¹¹¹InEOTUBE as a tracer for […]. This assay is described in greater detail in Example 3, below. The sample was centrifuged at 6,000 rpm for 10 minutes in an Amicon Centrifree™ micro-concentrator (Amicon, Grace Co., Danvers, MA), 10,000 MW cutoff, to separate free hapten from hapten bound to Fab'. Total and free counts were determined and the slope of a plot of the ratio of bound hapten to free hapten versus the concentration of bound hapten was calculated for affinity constant (Ka).
(§2) The following were added to a 96 well microtiter plate, in triplicate: • a. 25µl EOTUBE-¹¹¹In-ground state in at 4.40pg/µl; • b. 25µl EOTUBE-ground state in at serial dilutions of the 0.40ng/µl and 0.36ng/µl made above. Eleven dilutions each plus a zero giving 24 points with a range of 10ng/well down to 4.40pg/well plus a zero. Dilute with RPMI containing 10% horse serum; • c. 25µl RPMI containing 10% horse serum; • d. 25µl antibody of interest. (concentration determined by sensitivity assay); and • e. 20µl sheep anti-mouse IgG coupled to sepharose beads (same as used in sensitivity curve assay).
(§3) The plate was incubated overnight on a rotator at room temperature. The contents of wells were aspirated onto glass-fiber filter paper, cut out and counted. Molar bound vs. bound/free were graphed. The linear regression of the part of the curve that is a straight line was determined. Ka was the negative of the slope.

[3] = test system: CHA255 Fab' variant clone 3.7.1 (heavy chain CDR H1/H3 mutagenesis, Fig. 3B); experiment: as above; format: binding, murine; conditions: compared with native CHA255 Fab' (synthesized and phage expressed); crude periplasm Fab', about 10 nM; cold InEOTUBE 2.43 nM to 0.082 nM
Method: as §1, §2, §3

[4] = test system: CHA255 Fab' variant clone 3.2.1 (heavy chain CDR H1/H3 mutagenesis, Fig. 3B); experiment: as above; format: binding, murine; conditions: compared with native phage expressed CHA255 Fab'; crude periplasm Fab', about 10 nM; cold InEOTUBE 2.43 nM to 0.082 nM
Method: as §1, §2, §3

[5] = test system: CHA255 Fab' variant clone 4.2.1 (heavy chain CDR H1/H3 mutagenesis, Fig. 3B); experiment: as above; format: binding, murine; conditions: compared with native CHA255 Fab' (synthesized and phage expressed); crude periplasm Fab', about 10 nM; cold InEOTUBE 2.43 nM to 0.082 nM
Method: as §1, §2, §3

[6] = test system: CHA255 Fab' variant clone 1.1.1 (heavy chain CDR H1/H3 mutagenesis, Fig. 3B); experiment: as above; format: binding, murine; conditions: compared with native CHA255 Fab' (synthesized and phage expressed); crude periplasm Fab', about 10 nM; cold InEOTUBE 2.43 nM to 0.082 nM
Method: as §1, §2, §3

Substance | antibody-hapten chelate binding [1] | binding affinity (affinity constant Ka for InEOTUBE) [2] | binding affinity (affinity constant Ka for InEOTUBE) [3] | binding affinity (affinity constant Ka for InEOTUBE) [4] | binding affinity (affinity constant Ka for InEOTUBE) [5] | binding affinity (affinity constant Ka for InEOTUBE) [6]
diethylenetriaminepentaacetic acid [⁹⁰Yttrium (III) DTPA] | neither ⁹⁰Yttrium (III) or ¹¹¹Indium (III) DTPA, alone, bound |  |  |  |  | 
4-[N'[2-hydroxyethyl]-thioureido]benzyl EDTA [InEOTUBE] |  | approximately equivalent | approximately equivalent | approximately one order of magnitude less than the native phage expressed Fab' | approximately equivalent | approximately equivalent
